The supplement of paper PMC11451515

Test system: SEM cells
Experiment: cell viability relative to DMSO control; higher = less cytotoxic
Settings: 48 h
How it was run: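 Library compounds in DMSO were pin-dosed into 1536-well plates (5 μl) holding NOMO1 or SEM (500 cells/well) or P12-Ichikawa (1000 cells/well) leukemia cells, across an 11-point threefold series of 47 μM to 0.79 nM. Each cell line had been adapted for at least four passages in each medium. CellTiter-Glo One luminescence was read after 48 h at 37°C. Viability is the per-plate percentage relative to DMSO wells, with cell-free wells as background.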

[1] = HPLM + 10% dialyzed FBS, 0.000781 µM
[2] = HPLM + 10% dialyzed FBS, 0.00234 µM
[3] = HPLM + 10% dialyzed FBS, 0.00702 µM
[4] = HPLM + 10% dialyzed FBS, 0.0211 µM
[5] = HPLM + 10% dialyzed FBS, 0.0632 µM
[6] = HPLM + 10% dialyzed FBS, 0.19 µM
[7] = HPLM + 10% dialyzed FBS, 0.569 µM
[8] = HPLM + 10% dialyzed FBS, 1.71 µM
[9] = HPLM + 10% dialyzed FBS, 5.12 µM
[10] = HPLM + 10% dialyzed FBS, 15.4 µM
[11] = HPLM + 10% dialyzed FBS, 46.1 µM
[12] = RPMI 5 mM glucose + 10% FBS, 0.000781 µM
[13] = RPMI 5 mM glucose + 10% FBS, 0.00234 µM
[14] = RPMI 5 mM glucose + 10% FBS, 0.00702 µM
[15] = RPMI 5 mM glucose + 10% FBS, 0.0211 µM
[16] = RPMI 5 mM glucose + 10% FBS, 0.0632 µM
[17] = RPMI 5 mM glucose + 10% FBS, 0.19 µM
[18] = RPMI 5 mM glucose + 10% FBS, 0.569 µM
[19] = RPMI 5 mM glucose + 10% FBS, 1.71 µM
[20] = RPMI 5 mM glucose + 10% FBS, 5.12 µM
[21] = RPMI 5 mM glucose + 10% FBS, 15.4 µM
[22] = RPMI 5 mM glucose + 10% FBS, 46.1 µM
[23] = RPMI 5 mM glucose + 10% dialyzed FBS, 0.000781 µM
[24] = RPMI 5 mM glucose + 10% dialyzed FBS, 0.00234 µM
[25] = RPMI 5 mM glucose + 10% dialyzed FBS, 0.00702 µM
[26] = RPMI 5 mM glucose + 10% dialyzed FBS, 0.0211 µM
[27] = RPMI 5 mM glucose + 10% dialyzed FBS, 0.0632 µM
[28] = RPMI 5 mM glucose + 10% dialyzed FBS, 0.19 µM
[29] = RPMI 5 mM glucose + 10% dialyzed FBS, 0.569 µM
[30] = RPMI 5 mM glucose + 10% dialyzed FBS, 1.71 µM
[31] = RPMI 5 mM glucose + 10% dialyzed FBS, 5.12 µM
[32] = RPMI 5 mM glucose + 10% dialyzed FBS, 15.4 µM
[33] = RPMI 5 mM glucose + 10% dialyzed FBS, 46.1 µM

SMILES	cell viability [1] [%]	cell viability [2] [%]	cell viability [3] [%]	cell viability [4] [%]	cell viability [5] [%]	cell viability [6] [%]	cell viability [7] [%]	cell viability [8] [%]	cell viability [9] [%]	cell viability [10] [%]	cell viability [11] [%]	cell viability [12] [%]	cell viability [13] [%]	cell viability [14] [%]	cell viability [15] [%]	cell viability [16] [%]	cell viability [17] [%]	cell viability [18] [%]	cell viability [19] [%]	cell viability [20] [%]	cell viability [21] [%]	cell viability [22] [%]	cell viability [23] [%]	cell viability [24] [%]	cell viability [25] [%]	cell viability [26] [%]	cell viability [27] [%]	cell viability [28] [%]	cell viability [29] [%]	cell viability [30] [%]	cell viability [31] [%]	cell viability [32] [%]	cell viability [33] [%]
COc1cccc2c1C(=O)c1c(O)c3c(c(O)c1C2=O)C[C@@](O)(C(=O)CO)C[C@@H]3O[C@H]1C[C@H](N)[C@H](O[C@H]2CCCCO2)[C@H](C)O1	101	106	111	103	102	129	102	81.8	13	109	72.2	79.7	84.3	89.5	91	65.2	96.1	66.6	44.8	7.83	95.8	59	92.9	110	119	123	117	115	95.8	77.3	18.3	126	105
CCC[S+](=O)([O-])Nc1ccc(F)c(C(=O)c2c[nH]c3ncc(Cl)cc23)c1F	108	137	121	123	123	121	129	103	107	17.9	9.67												107	120	117	121	132	131	122	120	121	46.9	9.16
COc1cc([C@@H](CC(=O)O)c2ccc(C)c(CN3C[C@@H](C)Oc4ccccc4[S+]3(=O)[O-])c2)cc2nnn(C)c12	97.2	104	104	108	106	103	108	102	87	88.4	70.2	115	111	133	134	87	82.6	83.7	96.6	67.5	18.1	14.5	116	116	110	104	104	78.5	83.2	89.7	74.3	64.4	53.9
COc1cc([C@@H]2c3cc4c(cc3[C@H](O)[C@H]3COC(=O)[C@@H]23)OCO4)cc(OC)c1OC	83.1	82.7	95.3	101	86.7	69.5	30.2	19.1	18.8	13.2	11.6	101	97.2	104	98.3	93.5	80.7	23.2	12.1	12.2	13.5	6.13	75.4	76	99.9	86.5	81.2	63	29.2	16.8	17.9	16.9	8.73
O=C(Nc1nnc(-c2ccco2)o1)c1cc(-c2ccccc2)nc2ccccc12	87.5	96.5	96.3	95	91.5	110	95.3	106	103	93	4.54	92.6	75.1	95.6	79.7	104	95.6	98.2	85	41.3	5.04	2.95	91.8	94.2	104	101	107	109	99	95.3	106	77.8	3.49
Cc1cn([C@H]2C=C[C@@H](CO)O2)c(=O)[nH]c1=O	88.9	106	104	124	114	99.6	109	130	127	112	103	89.5	110	109	108	110	107	117	110	104	126	106	91.2	93.9	104	112	118	96.4	107	125	116	104	74.2
CCOC(=O)N1c2ccc(C(F)(F)F)cc2[C@@H](N(Cc2cc(C(F)(F)F)cc(C(F)(F)F)c2)C(=O)OC)C[C@H]1CC	121	111	124	124	117	113	105	113	109	125	109	104	108	115	121	116	110	103	109	109	103	97.3	118	108	118	113	129	113	118	117	120	127	116
CN1CCN(c2c(F)cc3c(=O)c(C(=O)O)cn(CCF)c3c2F)CC1	84.2	85.3	103	118	108	105	100	109	109	105	110	96.4	96.4	108	105	110	104	116	111	125	118	101	105	92.6	123	113	111	112	117	129	111	114	118
